In data set [1] the test system is Nucleic Acid. Briefly: (§1) Ratio of drug level in brain to plasma in mouse. The class given is ADME, organism-based. Conditions: brain.
The test system of data set [2] is Mus musculus. Briefly: Oral bioavailability in mouse. The data set is classed as ADME, organism-based. The settings on record: in vivo.
The nature of data set [3]: Metabolic stability of the compound in simulated gastric fluid. The class given is physicochemical. Conditions: simulated gi fluid.
Data set [4] can be described thus: as §1. The data set is classed as ADME, organism-based. Conditions: brain and plasma, read-out: BPR.

The text below walks through data of ChEMBL document CHEMBL2069174, “Novel 2-methoxyacylhydrazones as potent, selective PDE10A inhibitors with activity in animal models of schizophrenia” (Bioorg Med Chem Lett, 2012).

Take `COc1cc(/C=N/NC(=O)C(OC)c2ccc(N3CCOCC3)cc2)cc(OC)c1Br` (racemic): the BPR in data set [1] was 0.37. In data set [2], the F is 63%. In addition, the Stability result in data set [3] is “Stable”.
As for `COc1cc(/C=N/NC(=O)C(OC)c2ccc(-n3cccn3)cc2)cc(OC)c1Br` (racemic), in data set [1], the BPR was 0.39. This compound also gave a F in data set [2] of 48%.
`COc1cc(/C=N/NC(=O)C(OC)c2ccc(N3CCOCC3)cc2)cc(OC)c1Br` (single isomer, unassigned; enantiomer 1): in data set [4], the Kp is 0.27. The compound further returned a F in data set [2] of 91%.
With `COc1cc(/C=N/NC(=O)C(OC)c2ccc(-n3cccn3)cc2)cc(OC)c1Br` (stereo in doubt; 61), in data set [1], the BPR was 0.12. Besides, the F in data set [2] came to 92%. Further, the Stability result in data set [3] is “Stable”.
